Legend:
[1] = target: human NK1 receptor (Homo sapiens (Human), UniProt P25103); assay: Human NK1 receptor binding assay: radioligand (125I-Bolton-Hunter-SP) binding inhibition using receptor from human lymphoblast cells (IM-9)
Experimental: 42, p. […] The receptor was prepared from human lymphoblast cells (IM-9).

[2] = target: human NK2 (hNK2) receptor (Homo sapiens (Human), UniProt P21452); assay: Human NK2 receptor binding assay: radioligand ([125I]-NK-A) binding inhibition using membrane fraction of CHO cells expressing hNK2 receptor; details: CHO cell membrane fraction
human NK2 (hNK2) receptor, sequence (P21452 whole entry): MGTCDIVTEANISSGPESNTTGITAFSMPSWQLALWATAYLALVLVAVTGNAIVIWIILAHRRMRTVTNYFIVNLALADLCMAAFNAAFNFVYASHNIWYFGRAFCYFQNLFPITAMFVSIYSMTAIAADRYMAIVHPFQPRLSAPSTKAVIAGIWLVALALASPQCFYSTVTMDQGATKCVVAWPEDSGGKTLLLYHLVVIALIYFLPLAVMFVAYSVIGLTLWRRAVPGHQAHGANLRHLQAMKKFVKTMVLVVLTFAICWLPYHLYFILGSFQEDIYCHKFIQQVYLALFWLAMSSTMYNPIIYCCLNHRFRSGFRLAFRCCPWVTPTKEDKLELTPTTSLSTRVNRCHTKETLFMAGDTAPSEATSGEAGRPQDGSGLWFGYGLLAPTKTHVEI
Experimental: CHO cells expressing hNK2 receptor were cultured in a HAM-F12 medium containing 400 μg/mL geneticin, 100 U/mL penicillin, 100 μg/mL streptomycin and 10% inactivated serum. The medium was removed, the adhered cells were washed with PBS, and PBS containing 5 mM EDTA was added to detach the cells from the flask. The cells were collected by centrifugation, suspended in suspension buffer A (15 mM Tris-HCl (pH 7.5), 2 mM MgCl2, 0.3 mM ethylenediaminetetraacetic acid (EDTA), 1 mM O,O′-bis(2-aminoethyl)ethyleneglycol-N,N,N′,N′-tetraacetic acid (EGTA)), disrupted by a Polytron homogenizer (Kinematika), and centrifuged at 800×g for 10 min. The supernatant was recovered and ultracentrifuged at 100,000×g for 25 min.
Measurement buffer (50 mM Tris-HCl (pH 7.4), 0.02% bovine serum albumin, 2 μg/mL chymostatin, 40 μg/mL bacitracin, 40 μg/mL APMSF, 3 mM MnCl2) (50 μL) was added to a 96-well microassay plate. The membrane reference standard (20 μg/mL) suspended in a measurement buffer was added by 50 μL.
After reaction at 25° C. for 30 min, the reaction was quenched using a cell harvester (PerkinElmer) by rapid filtration on a GF/C filter plate, and the cells were washed 5 times with 250 μL of a 50 mM Tris-HCl buffer (pH 7.4) containing 0.02% bovine serum albumin. The GF/C filter plate was dried, MicroScinti-0 (PerkinElmer) was added by 20 μL, and the radioactivity was measured on a TopCount (PerkinElmer). The GF/C filter plate used had been immersed in 0.3% polyethyleneimine for one day.
The specific binding level is shown by a value obtained by subtracting non-specific binding level from the total binding level. The binding inhibitory activity of the test compound is shown by a ratio of the value obtained by subtracting the measurement value with addition of a test compound from the total binding level, to the value of the specific binding level.

[3] = target: human NK3 (hNK3) receptor (Homo sapiens (Human), UniProt P29371); assay: Human NK3 receptor binding assay: radioligand ([125I]-NK-B) binding inhibition using membrane fraction of CHO cells expressing hNK3 receptor; details: CHO cell membrane fraction
human NK3 (hNK3) receptor, sequence (P29371 whole entry): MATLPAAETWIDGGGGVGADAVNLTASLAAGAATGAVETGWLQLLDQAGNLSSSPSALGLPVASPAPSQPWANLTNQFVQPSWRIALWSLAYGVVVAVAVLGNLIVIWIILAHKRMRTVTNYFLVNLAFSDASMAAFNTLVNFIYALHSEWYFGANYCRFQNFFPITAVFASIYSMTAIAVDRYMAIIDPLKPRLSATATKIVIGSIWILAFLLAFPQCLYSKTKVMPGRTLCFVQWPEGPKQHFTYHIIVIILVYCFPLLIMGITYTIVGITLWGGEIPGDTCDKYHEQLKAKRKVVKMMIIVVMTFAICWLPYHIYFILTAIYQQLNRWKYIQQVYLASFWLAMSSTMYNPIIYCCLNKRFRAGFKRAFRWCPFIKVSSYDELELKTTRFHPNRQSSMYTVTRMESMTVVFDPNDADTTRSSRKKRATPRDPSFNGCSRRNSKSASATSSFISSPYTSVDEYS
Experimental: CHO cells expressing hNK3 receptor were cultured in a MEMα medium (Nikken Seibutsu Igaku Kenkyusho, K.K.) containing 100 U/mL penicillin, 100 μg/mL streptomycin and 10% inactivated dialyzed serum. The medium was removed, the adhered cells were washed with PBS, and PBS containing 5 mM EDTA was added to detach the cells from the flask. The cells were collected by centrifugation, suspended in suspension buffer A (50 mM Tris-HCl (pH 7.4) containing 120 mM NaCl, 5 mM KCl, 2 μg/mL chymostatin, 40 μg/mL bacitracin, 40 μg/mL APMSF, 1 mM EDTA), disrupted by a Polytron homogenizer (Kinematika), and centrifuged at 800×g for 10 min. The supernatant was recovered and ultracentrifuged at 100,000×g for 25 min. The precipitation fraction was suspended in suspension buffer B (50 mM Tris-HCl (pH 7.4), 0.02% bovine serum albumin, 2 μg/mL chymostatin, 40 μg/mL bacitracin, 40 μg/mL APMSF, 3 mM MnCl2), and cryopreserved (−80° C.) as a receptor reference standard. […]
After reaction at 25° C. for 30 min, the reaction was quenched using a cell harvester (PerkinElmer) by rapid filtration on a GF/C filter plate, and the cells were washed 5 times with 250 μL of a 50 mM Tris-HCl buffer (pH 7.4) containing 0.02% bovine serum albumin. The GF/C filter plate was dried, MicroScinti-0 (Perkin Elmer) was added by 20 μL, and the radioactivity was measured on a TopCount (PerkinElmer). […]

human NK1 receptor, sequence (P25103 whole entry): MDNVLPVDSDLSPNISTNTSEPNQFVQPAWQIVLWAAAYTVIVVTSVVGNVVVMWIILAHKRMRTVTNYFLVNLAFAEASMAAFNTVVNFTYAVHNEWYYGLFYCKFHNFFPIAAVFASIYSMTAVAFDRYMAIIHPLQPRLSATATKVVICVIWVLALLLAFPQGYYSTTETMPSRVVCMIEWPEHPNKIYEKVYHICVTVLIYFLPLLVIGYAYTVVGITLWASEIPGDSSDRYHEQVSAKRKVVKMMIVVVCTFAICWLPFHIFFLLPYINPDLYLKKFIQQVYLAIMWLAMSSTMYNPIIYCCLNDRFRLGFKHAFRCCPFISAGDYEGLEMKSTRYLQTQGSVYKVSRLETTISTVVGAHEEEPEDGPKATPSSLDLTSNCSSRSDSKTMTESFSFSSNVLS

Row | melting point | SMILES | also measured
1 | 128 to 130 °C | CC(=O)N1CCC(C(=O)N2CC[C@@H](N(C)C(=O)c3ccc(Br)cn3)[C@H](c3ccc(Cl)c(Cl)c3)C2)CC1 | –
2 | 130 to 132 °C | CN(C(=O)c1ccc(Br)cc1)[C@@H]1CCN(C(=O)C2CCN(C(=O)CO)CC2)C[C@H]1c1ccc(Cl)c(Cl)c1.O (hydrate or solvate) | –
3 | 134 to 136 °C | COc1ccc(C(=O)N(C)[C@@H]2CCN(C(=O)C3CCN(C(C)=O)CC3)C[C@H]2c2ccc(Cl)c(Cl)c2)cc1 | –
4 | – | CC(=O)N1CCC(C(=O)N2CC[C@@H](N(C)C(=O)c3ccc(N4CCOCC4)cc3)[C@H](c3ccc(Cl)c(Cl)c3)C2)CC1.O [Example 268, N-[(3R,4R)-1-[(1-acetylpiperidin-4-yl)carbonyl]-3-(3,4-dichlorophenyl)piperidin-4-yl]-N-methyl-4-morpholin-4-ylbenzamide monohydrate] | hNK1 % inh. (10 μM) ([1]; 10 μM): 58.2% inh.; IC50 [2]: 0.42 nM
5 | 124 to 127 °C | CN(C(=O)c1ccc(C(F)(F)F)cc1)[C@@H]1CCN(C(=O)C2CCN(C(=O)CO)CC2)C[C@H]1c1ccc(Cl)c(Cl)c1.O (hydrate or solvate) | –
6 | – | CC(=O)N1CCC(C(=O)N2C[C@@H](N(C)C(=O)c3cc(C(F)(F)F)cc(C(F)(F)F)c3)[C@H](c3ccc(Cl)c(Cl)c3)C2)CC1 (racemic) [Example 82, N-[(3S*,4R*)-1-[(1-acetylpiperidin-4-yl)carbonyl]-4-(3,4-dichlorophenyl)pyrrolidin-3-yl]-N-methyl-3,5-bis(trifluoromethyl)benzamide] | IC50 [2]: 2.2 nM
7 | – | CC(=O)N1CCC(C(=O)N2CC[C@@H](N(C)C(=O)c3ccc(-c4ccccc4)cc3)[C@H](c3ccc(Cl)c(Cl)c3)C2)CC1 (racemic) [Example 31, N-[(3R*,4R*)-1-[(1-acetylpiperidin-4-yl)carbonyl]-3-(3,4-dichlorophenyl)piperidin-4-yl]-N-methylbiphenyl-4-carboxamide] | IC50 [3]: 160 nM; IC50 ([1]; radioligand binding inhibition, IM-9 cell receptor, read-out: hNK1 IC50): 410 nM; IC50 [2]: 1.7 nM
8 | 128 to 131 °C | CN(C(=O)c1ccc(Cl)cc1)[C@@H]1CCN(C(=O)C2CCN(C(=O)CO)CC2)C[C@H]1c1ccc(Cl)c(Cl)c1.O (hydrate or solvate) | –
9 | 156 to 158 °C | CN(C(=O)c1ccc(Cl)cc1)[C@@H]1CCN(C(=O)Nc2ccc(F)nc2)C[C@H]1c1ccc(Cl)c(Cl)c1 [Example 516, (3R,4R)-4-{[(4-chlorophenyl)carbonyl](methyl)amino}-3-(3,4-dichlorophenyl)-N-(6-fluoropyridin-3-yl)piperidine-1-carboxamide] | –
10 | 113 to 115 °C | CC(=O)N1CCC(C(=O)N2CC[C@@H](N(C)C(=O)c3ccc(Cl)cc3)[C@H](c3ccc(Cl)c(Cl)c3)C2)CC1.O (hydrate or solvate) | –

Row | SMILES | melting point | also measured
11 | CC(=O)N1CCC(C(=O)N2CC[C@@H](N(C)C(=O)c3ccc(N4CCOCC4)cc3)[C@H](c3ccc(Cl)c(Cl)c3)C2)CC1.O (hydrate or solvate) [Example 268, N-[(3R,4R)-1-[(1-acetylpiperidin-4-yl)carbonyl]-3-(3,4-dichlorophenyl)piperidin-4-yl]-N-methyl-4-morpholin-4-ylbenzamide monohydrate] | 136 to 139 °C | –

— patent publication US8470816B2, “Nitrogen-containing heterocyclic compound and use thereof” (Takeda Pharmaceutical Company Limited, priority 2007, dated 2013)
